# Article PMC10796436, “Peptidyl nitroalkene inhibitors of main protease rationalized by computational and crystallographic investigations as antivirals against SARS-CoV-2” (Communications Chemistry, 2024)
# “And” between values parts separate entries of the source, which are not always exact repeats. Equal values may be shown once. Read-outs that look alike come from different tables or passages of the source.
# Legend:
# Permeability, PAMPA = type: in vitro ADME; details: UV-quantified, 2–7 h
# Description: Permeability. General principle after Lit.66 Incubation setup: donor (top) plate (Sigma Aldrich, MAIPNTR10), 5 µL artificial membrane (1 % (w/v) L-α-Phosphatidylcholin, Sigma Aldrich P3556, in n-dodecane, Sigma Aldrich 8205430100), acceptor (bottom) plate (Greiner, 655074).
# Measurement setup – UV spectroscopy: UV-transparent measurement plate (Greiner UV-Star®, 655801), Tecan Spark® well plate reader, 200 µL sample volume, λ = 200–650 nm. Analysis was performed with AUC function in GraphPad Prism using the indicated wavelength range.
# Sigma D5652; pH 7.4 or TRIS 50 mM pH 7.4) aqueous solution with varying final contents of ACN or DMSO as indicated. (“donor solution”). Similarly prepared solutions (buffer + solvent) were used as “acceptor solutions”. 150 µL of donor solution was applied onto the artificial membrane which was applied first to the donor plate. This was sealed (Greiner, 676070, Viewseal sealer). 400 µL of acceptor solution was applied to the acceptor plate. […] After this time, acceptor solution was analyzed with UV spectroscopy. Reference solutions were prepared by simply mixing the indicated volumes of donor and acceptor solutions at the start of the incubation period and analyzed later with the acceptor solutions. […]
# After the incubation period, the reference solution was analyzed by LCMS as described under […]
# No permeation can be observed in any of the UV-quantified experiments. […]
# M^pro [1] = target: T1, M^pro (Severe acute respiratory syndrome coronavirus 2, UniProt P0DTD1); assay: Binding to M^pro by ultracentrifugation (sedimentation method)
# Huh-7-ACE2 cells = details: 24h
# M^pro [2] = target: T1, M^pro; type: biochemical; details: for Fluorescence reading (progress curve): triplicate wells
# Description: Buffer: 20 mM Tris, 0.1 mM EDTA, 1 mM DTT, 200 mM NaCl pH = 7.5. For the dilution assay Nirmatrelvir[21] was used as a reversible control and LM188[54] as an irreversible control (Fig. 10).
# The incubation was done at RT for 30 min in assay buffer. DMSO was used as a control. After incubation the Enzyme/Inhibitor (or DMSO) mixtures were diluted 100-fold in assay buffer.
# The preincubation was done in assay buffer (20 mM Tris, 0.1 mM EDTA, 1 mM DTT, 200 mM NaCl, pH = 7.5), at RT for 30 min. After incubation the mixtures were diluted […]
# proteolytic activity of the enzyme was measured as described for the enzymatic assays using the […]
# activity was measured over 1 h.
# Inhibition assay58. Trypsin: Enzyme: bovine trypsin purchased from Sigma-Aldrich (St. Louis, […]
# Substrate: Cbz-FR-AMC purchased from Bachem (Bubendorf, Switzerland), [Substrate]: 40 µM […]
# The activity against bovine trypsin was tested at 20 µM inhibitor concentration. […]
# M^pro [3] = target: T1, M^pro; assay: Binding to M^pro by ITC; design: DP / DH: unit not given here
compound,measurement,setting,value
COc1cccc2[nH]c(C(=O)N[C@@H](CC(C)C)C(=O)N[C@H](/C=C/[N+](=O)[O-])C[C@@H]3CCNC3=O)cc12 [FGA146],permeation,"Permeability, PAMPA",No permeation
same,"Fraction bound, Absorption",M^pro [1]; ligand concentration 0.1,0.00706
same,"Fraction bound, Fluorescence",M^pro [1]; ligand concentration 0.1,0.00606
same,"Fraction bound, Absorption",M^pro [1]; ligand concentration 0.5,0.0199
same,"Fraction bound, Fluorescence",M^pro [1]; ligand concentration 0.5,0.0299
same,"Fraction bound, Absorption",M^pro [1]; ligand concentration 1,0.07275
same,"Fraction bound, Fluorescence",M^pro [1]; ligand concentration 1,0.06275
same,"Fraction bound, Absorption",M^pro [1]; ligand concentration 5,0.3362
same,"Fraction bound, Fluorescence",M^pro [1]; ligand concentration 5,0.3162
same,"Fraction bound, Absorption",M^pro [1]; ligand concentration 10,0.6468
same,"Fraction bound, Fluorescence",M^pro [1]; ligand concentration 10,0.623
same,"Fraction bound, Absorption",M^pro [1]; ligand concentration 25,0.9146
same,"Fraction bound, Fluorescence",M^pro [1]; ligand concentration 25,0.8218
same,"Fraction bound, Absorption",M^pro [1]; ligand concentration 50,0.9678
same,"Fraction bound, Fluorescence",M^pro [1]; ligand concentration 50,0.9995
same,"Fraction bound, Absorption",M^pro [1]; ligand concentration 100,1.004
same,"Fraction bound, Fluorescence",M^pro [1]; ligand concentration 100,0.9916
same,Kd,"M^pro [1]; ultracentrifugation, 25 °C",7.28 ± 0.58 µM
same,CC50,Huh-7-ACE2 cells,> 100 µM
same,Fluorescence reading (progress curve),M^pro [2]; Time 180.071 s,702 and 681 and 686
same,Fluorescence reading (progress curve),M^pro [2]; Time 210.081 s,743 and 723 and 735
same,Fluorescence reading (progress curve),M^pro [2]; Time 240.095 s,788 and 769 and 779
same,Fluorescence reading (progress curve),M^pro [2]; Time 270.113 s,832 and 815 and 822
same,Fluorescence reading (progress curve),M^pro [2]; Time 300.118 s,871 and 859 and 876
same,Fluorescence reading (progress curve),M^pro [2]; Time 330.126 s,913 and 895 and 906
same,Fluorescence reading (progress curve),M^pro [2]; Time 360.134 s,943 and 930 and 957
same,Fluorescence reading (progress curve),M^pro [2]; Time 390.141 s,989 and 974 and 988
same,Fluorescence reading (progress curve),M^pro [2]; Time 420.149 s,1026 and 1011 and 1031
same,Fluorescence reading (progress curve),M^pro [2]; Time 450.157 s,1063 and 1040
same,Fluorescence reading (progress curve),M^pro [2]; Time 2881.2 s,2210 and 2162 and 2202
same,Fluorescence reading (progress curve),M^pro [2]; Time 2911.21 s,2205 and 2168 and 2199
same,Fluorescence reading (progress curve),M^pro [2]; Time 2941.22 s,2214 and 2173 and 2206
same,Fluorescence reading (progress curve),M^pro [2]; Time 2971.24 s,2207 and 2185 and 2213
same,Fluorescence reading (progress curve),M^pro [2]; Time 3001.25 s,2222 and 2185 and 2232
same,Fluorescence reading (progress curve),M^pro [2]; Time 3031.26 s,2246 and 2178 and 2225
same,Fluorescence reading (progress curve),M^pro [2]; Time 3061.27 s,2233 and 2191 and 2237
same,Fluorescence reading (progress curve),M^pro [2]; Time 3091.28 s,2243 and 2199 and 2235
same,Fluorescence reading (progress curve),M^pro [2]; Time 3121.29 s,2244 and 2187 and 2224
same,Fluorescence reading (progress curve),M^pro [2]; Time 3151.3 s,2247 and 2204 and 2241
same,Fluorescence reading (progress curve),M^pro [2]; Time 3181.31 s,2224 and 2196 and 2245
same,Fluorescence reading (progress curve),M^pro [2]; Time 3211.32 s,2250 and 2188 and 2275
same,Fluorescence reading (progress curve),M^pro [2]; Time 3241.33 s,2234 and 2200
same,Fluorescence reading (progress curve),M^pro [2]; Time 3271.34 s,2236 and 2195 and 2245
same,Fluorescence reading (progress curve),M^pro [2]; Time 3301.35 s,2233 and 2201 and 2238
same,Fluorescence reading (progress curve),M^pro [2]; Time 3331.36 s,2246 and 2198 and 2261
same,Fluorescence reading (progress curve),M^pro [2]; Time 3361.37 s,2261 and 2203 and 2250
same,Fluorescence reading (progress curve),M^pro [2]; Time 3391.39 s,2251 and 2199 and 2248
same,Fluorescence reading (progress curve),M^pro [2]; Time 3421.39 s,2261 and 2206 and 2226
same,Fluorescence reading (progress curve),M^pro [2]; Time 3451.41 s,2253 and 2215 and 2257
same,Fluorescence reading (progress curve),M^pro [2]; Time 3481.42 s,2274 and 2215 and 2263
same,Fluorescence reading (progress curve),M^pro [2]; Time 3511.43 s,2266 and 2207 and 2242
same,Fluorescence reading (progress curve),M^pro [2]; Time 3541.44 s,2263 and 2215 and 2260
same,Fluorescence reading (progress curve),M^pro [2]; Time 3571.45 s,2254 and 2212 and 2248
same,recovery of M^pro activity after 100-fold dilution,M^pro [2]; preincubation 30 min,seems to recover over time
CC(C)C[C@H](NC(=O)OCc1ccccc1)C(=O)N[C@H](/C=C/[N+](=O)[O-])C[C@@H]1CCNC1=O [FGA147],Kd,"M^pro [3]; ITC, 25 °C",2.86 ± 0.25 µM
same,DH,M^pro [3]; Molar ratio 0.39455,-0.9026
same,DH,M^pro [3]; Molar ratio 0.72682,-0.8799
same,DH,M^pro [3]; Molar ratio 1.06223,-0.8369
same,DP,M^pro [3]; Time 0.08333 min,-0.00244
same,DP,M^pro [3]; Time 0.10000 min,-0.00119
same,DP,M^pro [3]; Time 0.11667 min,-0.00067
